Values belong to the compound of their own block, whether it stands above or below them.
What was measured:
beating neonatal CMCs = assay: Uptake of dual-labeled CTP by beating neonatal cardiomyocytes (confocal microscopy); type: cell-based, mouse; conditions: Digoxin 100 nM; 20 mM K+; dual-labeled CTP 25 μM; n = 3; p-value < 0.001
Experimental: To further study the CTP’s mechanism of transduction, CMCs were isolated from 1–3-day old mouse pups using published protocols. Beating CMCs were incubated with the dual-labeled CTP (25 μM) under normokalemic (5 mM) and hyperkalemic (20 mM) conditions. […] The degree of transduction of these cells was quantified using confocal microscopy. […] Rhodamine with an ester link was used as a negative control.

wild-type CD1 mice = assay: Cardiac targeting peptide imaging studies (microSPECT/CT and dynamic planar imaging); type: in vivo, mouse; conditions: 1-5 mCi injected; dual modality microSPECT/CT
Experimental: Cardiac targeting peptide was synthesized as detailed above, with HYNIC conjugated to the N-terminus and labeled with ^99mTc in a manner that was analogous to that described previously. The desired ^99mTc-HYNIC-CTP was purified from the crude reaction mixture using solid-phase extraction methods. The radiochemical purity of the final product was determined using reverse-phase HPLC methods.
Wild-type, 6–8 week old, CD1 mice (~25 g) were injected with 1–5 mCi of ^99mTc Sestamibi or ^99mTc-HYNIC-CTP, and was imaging performed immediately post-injection and at various time points using a Siemens Inveon dual-modality single photon emission computerized tomography/computerized tomography (SPECT/CT) with 5-MWB-1.0 collimators (Siemens Corporation, Washington, DC, USA). The images were resliced for a coronal view and they were Z-stack summed. Analysis of the distribution of the radioisotope was performed using ImageJ software. Measurements were taken by selecting a region of interest at the 0 h time point, applying the same region at different time points for dynamic time course studies. All counts were corrected for the radioactive decay of ^99mTc. For a comparison of dynamic planar images, the highest count in each organ (heart, kidney, and bladder) was set at 100%, and the counts at other time-points plotted as a percentage of that count.

[1] = system: human iPSC-derived beating cardiomyocytes (CMCs); assay: Transduction of human iPSC-derived cardiomyocytes (confocal imaging); type: cell-based; conditions: 10 μM, 30 min, 37 °C; washed 3x with PBS; confocal microscopy; Supplemental Figure 5
Experimental: All protocols involving human tissue samples were approved by the University of Pittsburgh Institutional Review Board (No. PRO09090021). […] After the incubation period, cells were washed, and live confocal imaging was performed immediately.

transferrin receptor = target: T1, transferrin receptor (Rattus norvegicus, UniProt Q99376); assay: LRC-TriCEPs ligand-receptor capture on H9C2 cells, mass spectrometry (transferrin positive control); type: binding; conditions: TriCEPS-transferrin conjugate on H9C2 cells; triplicate
T1 construct: endogenous in cells; host or cells: H9C2 rat cardiomyoblast cells
Excerpt: To identify a possible binding partner for CTP, we utilized LRC-TriCEPs technology a service provided by Dualsystems Biotech (Zurich, Switzerland). This methodology relies on TriCEPs™, a trifunctional chemoproteomics reagent, containing (1) a N-hydroxysuccinimide (NHS) ester for attachment to the ligand, (2) a protected hydrazine function for capturing the interacting receptor, and (3) a function for the purification of the ligand-receptor complex. Rat cardiomyoblast cell line H9C2 cells were grown in Dulbecco’s Modified Eagle’s Medium: Nutrient Mixture F-12 (DMEM/F12) (Gibco, Gaithersburg, MD, USA; cat #11039) medium supplemented with 10% fetal bovine serum and maintained at ≤70% confluence. A pretest was performed to identify the binding conditions of the TriCEPS-CTP conjugate on H9C2 cells at varying temperatures, times of incubation, and pH, with successful labeling being analyzed by fluorescence-activated cell sorting (FACs). The LRC-TriCEPS experiment was performed with TriCEP-CTP, TriCEPS-transferrin, and TriCEPS-glycine conjugates, each in triplicate. After the incubation period, cells were lazed and purified using solid-state chromatography, and identified using mass spectrometry. […]

T1 sequence (Q99376 whole entry): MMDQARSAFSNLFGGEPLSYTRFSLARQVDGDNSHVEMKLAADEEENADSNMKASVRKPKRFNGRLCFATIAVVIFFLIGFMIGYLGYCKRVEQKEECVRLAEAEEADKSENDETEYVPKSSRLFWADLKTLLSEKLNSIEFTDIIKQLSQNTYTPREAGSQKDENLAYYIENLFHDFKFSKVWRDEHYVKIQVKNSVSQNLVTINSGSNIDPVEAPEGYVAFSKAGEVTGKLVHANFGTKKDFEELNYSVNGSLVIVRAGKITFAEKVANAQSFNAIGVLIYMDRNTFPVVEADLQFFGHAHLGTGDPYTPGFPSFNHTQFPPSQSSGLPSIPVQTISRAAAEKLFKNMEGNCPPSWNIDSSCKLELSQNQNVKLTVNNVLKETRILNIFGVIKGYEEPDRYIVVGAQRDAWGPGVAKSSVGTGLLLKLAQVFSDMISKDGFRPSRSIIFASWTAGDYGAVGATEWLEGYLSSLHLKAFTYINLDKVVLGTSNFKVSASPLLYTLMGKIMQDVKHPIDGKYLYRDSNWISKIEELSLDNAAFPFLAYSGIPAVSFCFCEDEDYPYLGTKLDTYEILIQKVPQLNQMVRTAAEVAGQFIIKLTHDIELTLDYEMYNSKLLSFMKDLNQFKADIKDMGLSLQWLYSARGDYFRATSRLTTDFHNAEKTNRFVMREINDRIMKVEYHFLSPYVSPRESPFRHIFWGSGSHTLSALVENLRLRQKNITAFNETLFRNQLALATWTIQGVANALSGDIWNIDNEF

Compound: C[C@H]1O[C@@H](O[C@H]2[C@@H](O)C[C@H](O[C@H]3[C@@H](O)C[C@H](O[C@H]4CC[C@@]5(C)[C@H](CC[C@@H]6[C@@H]5C[C@@H](O)[C@]5(C)[C@@H](C7=CC(=O)OC7)CC[C@]65O)C4)O[C@@H]3C)O[C@@H]2C)C[C@H](O)[C@@H]1O [Digoxin]
effect of pre-incubation on the hyperkalemia-induced increase in CTP uptake (beating neonatal CMCs): significantly abrogated

uptake by the heart (SPECT/CT) (wild-type CD1 mice): cardiac uptake
uptake in the liver or gut (for Sestamibi also kidneys) (wild-type CD1 mice): significant uptake
Compound: [C-]#[N+]CC(C)(C)OC.[C-]#[N+]CC(C)(C)OC.[C-]#[N+]CC(C)(C)OC.[C-]#[N+]CC(C)(C)OC.[C-]#[N+]CC(C)(C)OC.[C-]#[N+]CC(C)(C)OC.[Tc] [^99mTc Sestamibi]

Compound: H-STLMKFCYVEQN-OH [RAN]
uptake by human iPSC-derived CMCs [1]: some background binding to the gel matrix

fold increase of transferrin receptor in the positive control over CTP (transferrin receptor): ~5 fold
Compound: transferrin: positive control ligand in the LRC-TriCEPS experiment
